Laboratory results reported in patent US4293489A, “Derivatives of A-30912A nucleus” (Eli Lilly and Company, priority 1980, dated 1981).
Starred links: 1 amine or outer side, 2 acyl side, 3 side chain; linkers in the order of their positions; H or OH if unused. Positions of bridges follow the written chain, without caps; N, C: chain ends. Non-standard residues stand in square brackets, D forms with d. Residues, ends and D or L forms follow the SMILES beside them. *: point of attachment. Orn(4R-OH,5R-OH) = O=C([C@H](C[C@@H](O)[C@@H](O)N[*:3])N[*:1])[*:2]; hTyr(3S-OH,4S-OH) = N[C@H](C(=O)O)[C@H](O)[C@@H](O)c1ccc(O)cc1; Pro(3S-OH,4S-Me) = C[C@H]1CN[C@H](C(=O)O)[C@H]1O; X2 = CCCCCCCCCCCCCCS(=O)(=O)c1ccc(C(=O)*)cc1; Benzoyl(4-octyl) = CCCCCCCCc1ccc(C(=O)*)cc1; X10 = CCCCCCCCCCCCOc1cccc(C(=O)*)c1; Hyp = O=C(O)[C@@H]1C[C@@H](O)CN1; X9 = CCCCCCCCCCOc1cccc(C(=O)*)c1; X12 = CCCCCCOc1ccc(CCC(=O)*)cc1; X13 = CCCCCCCCOc1cccc(C(=O)*)c1; X14 = CCCCCCOc1ccc(C(=O)*)cc1; X17 = CCCCOc1ccc(CCC(=O)*)cc1

How the values were obtained:
Candida albicans A-26 = experiment: Agar plate disc diffusion test, MIC per disc; format: cell-based; conditions: 0.1M sodium borate, pH 7.5, 24 hours, 30° C.
Protocol: (§1) Tables 10 and 11 give the results of the testing in vitro of the compounds of Examples 3 and 4 by agar-plate disc-diffusion methods. In Table 10 activity is measured by the size (diameter in mm) of the observed zone of inhibition of the microorganism produced by the test compound. In Table 11, activity is measured by the minimal inhibitory concentration (MIC) of the substance (μg/disc) required to inhibit growth of the test organism. Table 12 gives the results of the testing in vitro of the p-(n-octyloxy)benzoyl derivative of A30912A nucleus [Formula III, R^1 is p-(n-octyloxy)benzoyl] against five strains of Candida albicans by the agar dilution method. In Table 12 activity is measured by the minimal inhibitory concentration (MIC) of the substance (μg/ml) required to inhibit the test organism.
(§2) ^(a) Compounds were suspended in 0.1M sodium borate solution, pH 7.5.
(§3) The compounds were tested at 20 μg/disc at top level and at twofold
(§4) dilutions until end points were reached. Incubation: 24 hours; 30°

[1] = tested on: Trychophyton mentagrophyes #6; experiment: Agar plate disc diffusion test, MIC per disc; format: cell-based, Trichophyton mentagrophytes; conditions: 0.1M sodium borate, pH 7.5, 24 hours, 30° C., * measurable zones with regrowth of organism around disc
Protocol: as §1, §2, §3, §4
*Measurable zones of inhibition with regrowth of organism around disc.

MIC (Candida albicans A-26) [μg/disc] | MIC [1] [μg/disc] | Compound
10 | > 40 | CCCCCCCCOc1cccc(C(=O)N[C@H]2C[C@@H](O)[C@@H](O)NC(=O)[C@@H]3[C@@H](O)[C@@H](C)CN3C(=O)[C@H]([C@@H](C)O)NC(=O)[C@H]([C@H](O)[C@@H](O)c3ccc(O)cc3)NC(=O)[C@@H]3C[C@@H](O)CN3C(=O)[C@H]([C@@H](C)O)NC2=O)c1 [drawing 127] (X13-[Orn(4R-OH,5R-OH)]T[Hyp][hTyr(3S-OH,4S-OH)]T[Pro(3S-OH,4S-Me)]; lactam 1-C)
2.5 | > 40 | CCCCCCCCCCOc1cccc(C(=O)N[C@H]2C[C@@H](O)[C@@H](O)NC(=O)[C@@H]3[C@@H](O)[C@@H](C)CN3C(=O)[C@H]([C@@H](C)O)NC(=O)[C@H]([C@H](O)[C@@H](O)c3ccc(O)cc3)NC(=O)[C@@H]3C[C@@H](O)CN3C(=O)[C@H]([C@@H](C)O)NC2=O)c1 [drawing 128] (X9-[Orn(4R-OH,5R-OH)]T[Hyp][hTyr(3S-OH,4S-OH)]T[Pro(3S-OH,4S-Me)]; lactam 1-C)
2.5 | > 40 | CCCCCCCCCCCCOc1cccc(C(=O)N[C@H]2C[C@@H](O)[C@@H](O)NC(=O)[C@@H]3[C@@H](O)[C@@H](C)CN3C(=O)[C@H]([C@@H](C)O)NC(=O)[C@H]([C@H](O)[C@@H](O)c3ccc(O)cc3)NC(=O)[C@@H]3C[C@@H](O)CN3C(=O)[C@H]([C@@H](C)O)NC2=O)c1 [drawing 129] (X10-[Orn(4R-OH,5R-OH)]T[Hyp][hTyr(3S-OH,4S-OH)]T[Pro(3S-OH,4S-Me)]; lactam 1-C)
2.5 | 0.312 | CCCCCCOc1ccc(C(=O)N[C@H]2C[C@@H](O)[C@@H](O)NC(=O)[C@@H]3[C@@H](O)[C@@H](C)CN3C(=O)[C@H]([C@@H](C)O)NC(=O)[C@H]([C@H](O)[C@@H](O)c3ccc(O)cc3)NC(=O)[C@@H]3C[C@@H](O)CN3C(=O)[C@H]([C@@H](C)O)NC2=O)cc1 [drawing 131] (X14-[Orn(4R-OH,5R-OH)]T[Hyp][hTyr(3S-OH,4S-OH)]T[Pro(3S-OH,4S-Me)]; lactam 1-C)
0.625 | 0.156 | CCCCCCCCc1ccc(C(=O)N[C@H]2C[C@@H](O)[C@@H](O)NC(=O)[C@@H]3[C@@H](O)[C@@H](C)CN3C(=O)[C@H]([C@@H](C)O)NC(=O)[C@H]([C@H](O)[C@@H](O)c3ccc(O)cc3)NC(=O)[C@@H]3C[C@@H](O)CN3C(=O)[C@H]([C@@H](C)O)NC2=O)cc1 [drawing 133] ({Benzoyl(4-octyl)}-[Orn(4R-OH,5R-OH)]T[Hyp][hTyr(3S-OH,4S-OH)]T[Pro(3S-OH,4S-Me)]; lactam 1-C)
20 | 1.25 | CCCCOc1ccc(CCC(=O)N[C@H]2C[C@@H](O)[C@@H](O)NC(=O)[C@@H]3[C@@H](O)[C@@H](C)CN3C(=O)[C@H]([C@@H](C)O)NC(=O)[C@H]([C@H](O)[C@@H](O)c3ccc(O)cc3)NC(=O)[C@@H]3C[C@@H](O)CN3C(=O)[C@H]([C@@H](C)O)NC2=O)cc1 [drawing 134] (X17-[Orn(4R-OH,5R-OH)]T[Hyp][hTyr(3S-OH,4S-OH)]T[Pro(3S-OH,4S-Me)]; lactam 1-C)

Compound | MIC (Candida albicans A-26) [μg/disc] | MIC [1] [μg/disc]
CCCCCCCCCCCCCCS(=O)(=O)c1ccc(C(=O)N[C@H]2C[C@@H](O)[C@@H](O)NC(=O)[C@@H]3[C@@H](O)[C@@H](C)CN3C(=O)[C@H]([C@@H](C)O)NC(=O)[C@H]([C@H](O)[C@@H](O)c3ccc(O)cc3)NC(=O)[C@@H]3C[C@@H](O)CN3C(=O)[C@H]([C@@H](C)O)NC2=O)cc1 [drawing 126] (X2-[Orn(4R-OH,5R-OH)]T[Hyp][hTyr(3S-OH,4S-OH)]T[Pro(3S-OH,4S-Me)]; lactam 1-C) | 0.625 | 0.039
CCCCCCOc1ccc(CCC(=O)N[C@H]2C[C@@H](O)[C@@H](O)NC(=O)[C@@H]3[C@@H](O)[C@@H](C)CN3C(=O)[C@H]([C@@H](C)O)NC(=O)[C@H]([C@H](O)[C@@H](O)c3ccc(O)cc3)NC(=O)[C@@H]3C[C@@H](O)CN3C(=O)[C@H]([C@@H](C)O)NC2=O)cc1 [drawing 135] (X12-[Orn(4R-OH,5R-OH)]T[Hyp][hTyr(3S-OH,4S-OH)]T[Pro(3S-OH,4S-Me)]; lactam 1-C) | 0.625 | 0.156
